Test results reported in patent US20240368096A1 (Enanta Pharmaceuticals, Inc., priority 2022, published 2024).

What follows are compounds tested on HBV (assay: HBV infection in HepG2-NTCP cells (HBeAg AlphaLISA in supernatants)). Conditions: HBV infection of HepG2-NTCP cells; HBeAg in supernatants at day 8 post infection; read-out: Cellular EC50.
Format: cell-based
In short: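 Readout was day-8 supernatant HBeAg by AlphaLISA, with EC50 set against DMSO controls and binned A<0.1 μM, B 0.1-1 μM, C>1 μM. Compounds were added 2 h before HBV (2000 GE/cell, 4% PEG, 0.5% DMSO) to HepG2-NTCP A3 cells; from day 1 medium held 2.5% DMSO.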

| EC50 [µM] | SMILES |
| --- | --- |
| > 1 | Cc1ccc(C(=O)O)c(C)c1-c1cc2c(cc1Cl)N(c1ccccc1)C[C@@H](C1CCCCC1)N(C)S2(=O)=O [Example 147, 3-((3R)-7-chloro-3-cyclohexyl-2-methyl-1,1-dioxido-5-phenyl-2,3,4,5-tetrahydrobenzo[f][1,2,5]thiadiazepin-8-yl)-2,4-dimethylbenzoic acid] |

Same assay, conditions: Hepatitis B virus, 192 h, read-out: Cellular EC50 (μM)

| SMILES | EC50 [µM] |
| --- | --- |
| CCOP(=O)(OCC)c1cccc(-c2cc3c(cc2Cl)N(c2ccccc2)C[C@@H](CC(C)C)N(C)S3(=O)=O)c1 [Example 169] | > 1 |

Same assay, conditions: Hepatitis B virus, 192 h; HBV infection of HepG2-NTCP cells; HBeAg in supernatants at day 8 post infection; read-out: Cellular EC50

| EC50 [µM] | SMILES |
| --- | --- |
| 0.1 to 1 | CCOc1ccc(-c2cc3c(cc2Cl)N(c2ccccc2)C[C@@H](C2CCCCC2)N(C)S3(=O)=O)cc1C(=O)O [Example 155, (R)-5-(7-chloro-3-cyclohexyl-2-methyl-1,1-dioxido-5-phenyl-2,3,4,5-tetrahydrobenzo[f][1,2,5]thiadiazepin-8-yl)-2-ethoxybenzoic acid] |
| < 0.1 | CN1[C@H](C2CCCCC2)CN(c2ccccc2)c2cc(Cl)c(-c3ccc(O)c(C(=O)O)c3)cc2S1(=O)=O [Example 156, (R)-5-(7-chloro-3-cyclohexyl-2-methyl-1,1-dioxido-5-phenyl-2,3,4,5-tetrahydrobenzo[f][1,2,5]thiadiazepin-8-yl)-2-hydroxybenzoic acid] |
| 0.1 to 1 | CN1[C@H](C2CCCCC2)CN(c2ccccc2)c2cc(F)c(-c3ccc(N)c(C(=O)O)c3)cc2S1(=O)=O [Example 158] |
| 0.1 to 1 | CN1[C@H](C2CCC2)CN(c2ccccc2)c2cc(Cl)c(-c3ccc(O)c(C(=O)O)c3)cc2S1(=O)=O [Example 159] |
| < 0.1 | CC(C)C[C@@H]1CN(c2ccccc2)c2cc(Cl)c(-c3ccc(O)c(C(=O)O)c3)cc2S(=O)(=O)N1C [Example 160, (R)-5-(7-chloro-3-isobutyl-2-methyl-1,1-dioxido-5-phenyl-2,3,4,5-tetrahydrobenzo[f][1,2,5]thiadiazepin-8-yl)-2-hydroxybenzoic acid] |
| 0.1 to 1 | CC(C)C[C@@H]1CN(c2ccccc2)c2cc(Cl)c(-c3cc(OC(F)(F)F)cc(C(=O)O)c3)cc2S(=O)(=O)N1C [Example 161] |
| > 1 | CC(C)C[C@@H]1CN(c2ccccc2)c2cc(Cl)c(-c3cccc(C4(C(=O)O)CC4)c3)cc2S(=O)(=O)N1C [Example 162] |
| < 0.1 | CC(C)C[C@@H]1CN(c2ccccc2)c2cc(Cl)c(-c3ccc(OC(F)(F)F)c(C(=O)O)c3)cc2S(=O)(=O)N1C [Example 163, (R)-5-(7-chloro-3-isobutyl-2-methyl-1,1-dioxido-5-phenyl-2,3,4,5-tetrahydrobenzo[f][1,2,5]thiadiazepin-8-yl)-2-(trifluoromethoxy)benzoic acid] |
| 0.1 to 1 | CC(C)C[C@@H]1CN(c2ccccc2)c2cc(Cl)c(-c3cc(C(=O)O)cc(C(F)(F)F)c3)cc2S(=O)(=O)N1C [Example 164] |
| 0.1 to 1 | CC(C)C[C@@H]1CN(c2ccccc2)c2cc(Cl)c(-c3ccc(C(F)F)c(C(=O)O)c3)cc2S(=O)(=O)N1C [Example 165] |
| > 1 | CC(C)C[C@@H]1CN(c2ccccc2)c2cc(Cl)c(-c3ccc(Cl)c(C(N)=O)c3)cc2S(=O)(=O)N1C [Example 166] |
| > 1 | CC(C)C[C@@H]1CN(c2ccccc2)c2cc(Cl)c(-c3cccc(C(N)=O)c3)cc2S(=O)(=O)N1C [Example 167] |
| > 1 | CC(C)C[C@@H]1CN(c2ccccc2)c2cc(Cl)c(-c3cccc(S(N)(=O)=O)c3)cc2S(=O)(=O)N1C [Example 168] |
| > 1 | CC(C)C[C@@H]1CN(c2ccccc2)c2cc(Cl)c(-c3ccc4onc(N)c4c3)cc2S(=O)(=O)N1C [Example 170] |
| > 1 | CC(C)C[C@@H]1CN(c2ccccc2)c2cc(Cl)c(-c3cccc(/C=C/C(=O)O)c3)cc2S(=O)(=O)N1C [Example 171] |
| > 1 | CC(C)C[C@@H]1CN(c2ccccc2)c2cc(Cl)c(-c3cccc(CCC(=O)O)c3)cc2S(=O)(=O)N1C [Example 172] |
| > 1 | CC(C)C[C@@H]1CN(c2ccccc2)c2cc(Cl)c(-c3cccc(CC(=O)O)c3)cc2S(=O)(=O)N1C [Example 173] |

The next lines start with the compound.

| SMILES | EC50 [µM] |
| --- | --- |
| Cc1c(C(=O)O)cccc1-c1cc2c(cc1Cl)N(c1ccccc1)C[C@@H](C1CCCCC1)N(C)S2(=O)=O [Example 144, (R)-3-(7-chloro-3-cyclohexyl-2-methyl-1,1-dioxido-5-phenyl-2,3,4,5-tetrahydrobenzo[f][1,2,5]thiadiazepin-8-yl)-2-methylbenzoic acid] | > 1 |
| Cc1ccc(C(=O)O)cc1-c1cc2c(cc1Cl)N(c1ccccc1)C[C@@H](C1CCCCC1)N(C)S2(=O)=O [Example 145, (R)-3-(7-chloro-3-cyclohexyl-2-methyl-1,1-dioxido-5-phenyl-2,3,4,5-tetrahydrobenzo[f][1,2,5]thiadiazepin-8-yl)-4-methylbenzoic acid] | > 1 |
| Cc1ccc(C(=O)O)c(C)c1-c1cc2c(cc1Cl)N(c1ccccc1)C[C@@H](C1CCCCC1)N(C)S2(=O)=O [Example 146, 3-((3R)-7-chloro-3-cyclohexyl-2-methyl-1,1-dioxido-5-phenyl-2,3,4,5-tetrahydrobenzo[f][1,2,5]thiadiazepin-8-yl)-2,4-dimethylbenzoic acid] | > 1 |
| CN1[C@H](C2CCCCC2)CN(c2ccccc2)c2cc(Cl)c(-c3cccc(C(=O)O)c3O)cc2S1(=O)=O [Example 148] | 0.1 to 1 |
| CN1[C@H](C2CCCCC2)CN(c2ccccc2)c2cc(Cl)c(-c3cccc(C(=O)O)c3F)cc2S1(=O)=O [Example 149, (R)-3-(7-chloro-3-cyclohexyl-2-methyl-1,1-dioxido-5-phenyl-2,3,4,5-tetrahydrobenzo[f][1,2,5]thiadiazepin-8-yl)-2-fluorobenzoic acid] | < 0.1 |
| CN1[C@H](C2CCCCC2)CN(c2ccccc2)c2cc(Cl)c(-c3cc(C(=O)O)ccc3F)cc2S1(=O)=O [Example 150, (R)-3-(7-chloro-3-cyclohexyl-2-methyl-1,1-dioxido-5-phenyl-2,3,4,5-tetrahydrobenzo[f][1,2,5]thiadiazepin-8-yl)-4-fluorobenzoic acid] | < 0.1 |
| CN1[C@H](C2CCCCC2)CN(c2ccccc2)c2cc(Cl)c(-c3cc(C(=O)O)ccc3Cl)cc2S1(=O)=O [Example 151, (R)-4-chloro-3-(7-chloro-3-cyclohexyl-2-methyl-1,1-dioxido-5-phenyl-2,3,4,5-tetrahydrobenzo[f][1,2,5]thiadiazepin-8-yl)benzoic acid] | 0.1 to 1 |
| CN1[C@H](C2CCCCC2)CN(c2ccccc2)c2cc(Cl)c(-c3cccc(C(=O)O)c3Cl)cc2S1(=O)=O [Example 152, (R)-2-chloro-3-(7-chloro-3-cyclohexyl-2-methyl-1,1-dioxido-5-phenyl-2,3,4,5-tetrahydrobenzo[f][1,2,5]thiadiazepin-8-yl)benzoic acid] | > 1 |
| CN1[C@H](C2CCCCC2)CN(c2ccccc2)c2cc(Cl)c(-c3cc4c(c(C(=O)O)c3)OCO4)cc2S1(=O)=O [Example 153, (R)-6-(7-chloro-3-cyclohexyl-2-methyl-1,1-dioxido-5-phenyl-2,3,4,5-tetrahydrobenzo[f][1,2,5]thiadiazepin-8-yl)benzo[d][1,3]dioxole-4-carboxylic acid] | < 0.1 |
| CN1[C@H](C2CCCCC2)CN(c2ccccc2)c2cc(Cl)c(-c3cc4c(c(C(=O)O)c3)OC(F)(F)O4)cc2S1(=O)=O [Example 154, (R)-6-(7-chloro-3-cyclohexyl-2-methyl-1,1-dioxido-5-phenyl-2,3,4,5-tetrahydrobenzo[f][1,2,5]thiadiazepin-8-yl)-2,2-difluorobenzo[d][1,3]dioxole-4-carboxylic acid] | 0.1 to 1 |
